Data as given in the supplement of paper PMC10307832.

Assays:
Experiment in all cases: relative viability (nuclei count vs DMSO), 5 days (fraction); higher = more cells survive
[1] = system: BEN
In short: (§1)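 Five library-drug doses in √10 steps were combined with a fixed anchor-drug dose, or a single drug was given alone, by pin tool to lung cancer cell lines in 1536-well plates the day after seeding. Nuclei were stained and counted after 5 days. Relative viability is the nuclei count in treated wells over that in vehicle wells, taken as the median of duplicate plates.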

[2] = system: COR-L 105
In short: as §1

[3] = system: COR-L23
In short: as §1

[4] = system: EKVX
In short: as §1

[5] = system: HCC-15
In short: as §1

[6] = system: HCC-366
In short: as §1

[7] = system: HCC-827
In short: as §1

[8] = system: LC-2-ad
In short: as §1

[9] = system: LCLC-97TM1
In short: as §1

[10] = system: LU99A
In short: as §1

[11] = system: NCI-H1755
In short: as §1

[12] = system: NCI-H1915
In short: as §1

[13] = system: NCI-H1944
In short: as §1

[14] = system: NCI-H1993
In short: as §1

[15] = system: NCI-H2342
In short: as §1

[16] = system: NCI-H3122
In short: as §1

[17] = system: NCI-H522
In short: as §1

[18] = system: NCI-H596
In short: as §1

[19] = system: PC-3 [JPC-3]
In short: as §1

[20] = system: RERF-LC-KJ
In short: as §1

[21] = system: SK-LU-1
In short: as §1

[22] = system: SK-MES-1
In short: as §1

Question: With COCC1(CO)C(=O)C2CCN1CC2 (configuration not stated) [PRIMA-1MET] + O=C(CCCCCCC(=O)Nc1ccccc1)NO [Vorinostat] (partner 1 µM) as the molecule, how does the relative viability ([1]; first compound 0.2 µM) read?
Answer: 0.664

Question: What about the relative viability ([1]; first compound 0.6325 µM) of the same molecule?
Answer: 0.389

Question: And the relative viability ([1]; first compound 6.325 µM)?
Answer: 0.571

Question: What about the relative viability ([1]; first compound 20 µM) of the same molecule?
Answer: 0.613

Question: And the relative viability ([2]; first compound 0.2 µM)?
Answer: 1.13

Question: And the relative viability ([2]; first compound 0.6325 µM)?
Answer: 0.859

Question: And the relative viability ([2]; first compound 2 µM)?
Answer: 0.769

Question: What about the relative viability ([2]; first compound 6.325 µM) of the same molecule?
Answer: 0.771

Question: What about the relative viability ([2]; first compound 20 µM) of the same molecule?
Answer: 0.196

Question: What about the relative viability ([3]; first compound 0.2 µM) of the same molecule?
Answer: 0.487

Question: What about the relative viability ([3]; first compound 0.6325 µM) of the same molecule?
Answer: 0.432

Question: What about the relative viability ([3]; first compound 2 µM) of the same molecule?
Answer: 0.454

Question: What about the relative viability ([3]; first compound 6.325 µM) of the same molecule?
Answer: 0.344

Question: And the relative viability ([3]; first compound 20 µM)?
Answer: 0.0281

Question: And the relative viability ([4]; first compound 0.2 µM)?
Answer: 0.995

Question: What about the relative viability ([4]; first compound 0.6325 µM) of the same molecule?
Answer: 0.548

Question: What about the relative viability ([4]; first compound 2 µM) of the same molecule?
Answer: 0.672

Question: And the relative viability ([4]; first compound 6.325 µM)?
Answer: 0.849

Question: And the relative viability ([4]; first compound 20 µM)?
Answer: 0.64

Question: What about the relative viability ([5]; first compound 0.2 µM) of the same molecule?
Answer: 0.962

Question: What about the relative viability ([5]; first compound 0.6325 µM) of the same molecule?
Answer: 0.798

Question: And the relative viability ([5]; first compound 2 µM)?
Answer: 0.887

Question: And the relative viability ([5]; first compound 6.325 µM)?
Answer: 0.871

Question: And the relative viability ([5]; first compound 20 µM)?
Answer: 0.758

Question: What about the relative viability ([6]; first compound 0.2 µM) of the same molecule?
Answer: 0.596

Question: What about the relative viability ([6]; first compound 0.6325 µM) of the same molecule?
Answer: 0.252

Question: What about the relative viability ([6]; first compound 2 µM) of the same molecule?
Answer: 0.249

Question: And the relative viability ([6]; first compound 6.325 µM)?
Answer: 0.336

Question: What about the relative viability ([6]; first compound 20 µM) of the same molecule?
Answer: 0.0291

Question: What about the relative viability ([7]; first compound 0.2 µM) of the same molecule?
Answer: 0.939

Question: What about the relative viability ([7]; first compound 0.6325 µM) of the same molecule?
Answer: 0.173

Question: And the relative viability ([7]; first compound 2 µM)?
Answer: 0.661

Question: What about the relative viability ([7]; first compound 6.325 µM) of the same molecule?
Answer: 0.816

Question: And the relative viability ([7]; first compound 20 µM)?
Answer: 0.855

Question: What about the relative viability ([8]; first compound 0.2 µM) of the same molecule?
Answer: 0.798

Question: And the relative viability ([8]; first compound 0.6325 µM)?
Answer: 0.578

Question: What about the relative viability ([8]; first compound 2 µM) of the same molecule?
Answer: 0.679

Question: What about the relative viability ([8]; first compound 6.325 µM) of the same molecule?
Answer: 0.733

Question: What about the relative viability ([8]; first compound 20 µM) of the same molecule?
Answer: 0.645

Question: What about the relative viability ([9]; first compound 0.2 µM) of the same molecule?
Answer: 0.547

Question: And the relative viability ([9]; first compound 0.6325 µM)?
Answer: 0.675

Question: What about the relative viability ([9]; first compound 2 µM) of the same molecule?
Answer: 0.747

Question: What about the relative viability ([9]; first compound 6.325 µM) of the same molecule?
Answer: 0.791

Question: And the relative viability ([9]; first compound 20 µM)?
Answer: 0.464

Question: What about the relative viability ([10]; first compound 0.2 µM) of the same molecule?
Answer: 0.628

Question: And the relative viability ([10]; first compound 0.6325 µM)?
Answer: 0.342

Question: What about the relative viability ([10]; first compound 2 µM) of the same molecule?
Answer: 0.54

Question: What about the relative viability ([10]; first compound 6.325 µM) of the same molecule?
Answer: 0.436

Question: What about the relative viability ([10]; first compound 20 µM) of the same molecule?
Answer: 0.113

Question: And the relative viability ([11]; first compound 0.2 µM)?
Answer: 0.944

Question: And the relative viability ([11]; first compound 0.6325 µM)?
Answer: 0.765

Question: What about the relative viability ([11]; first compound 2 µM) of the same molecule?
Answer: 0.721

Question: And the relative viability ([11]; first compound 6.325 µM)?
Answer: 0.748

Question: What about the relative viability ([11]; first compound 20 µM) of the same molecule?
Answer: 0.663

Question: What about the relative viability ([12]; first compound 0.2 µM) of the same molecule?
Answer: 0.605

Question: And the relative viability ([12]; first compound 0.6325 µM)?
Answer: 0.378

Question: And the relative viability ([12]; first compound 2 µM)?
Answer: 0.446

Question: What about the relative viability ([12]; first compound 6.325 µM) of the same molecule?
Answer: 0.625

Question: What about the relative viability ([12]; first compound 20 µM) of the same molecule?
Answer: 0.482

Question: And the relative viability ([13]; first compound 0.2 µM)?
Answer: 0.724

Question: And the relative viability ([13]; first compound 0.6325 µM)?
Answer: 0.4

Question: And the relative viability ([13]; first compound 2 µM)?
Answer: 0.428

Question: And the relative viability ([13]; first compound 6.325 µM)?
Answer: 0.531

Question: What about the relative viability ([13]; first compound 20 µM) of the same molecule?
Answer: 0.539

Question: What about the relative viability ([14]; first compound 0.2 µM) of the same molecule?
Answer: 0.743

Question: And the relative viability ([14]; first compound 2 µM)?
Answer: 0.629

Question: And the relative viability ([14]; first compound 6.325 µM)?
Answer: 0.651

Question: What about the relative viability ([14]; first compound 20 µM) of the same molecule?
Answer: 0.619

Question: What about the relative viability ([15]; first compound 0.2 µM) of the same molecule?
Answer: 0.694

Question: What about the relative viability ([15]; first compound 0.6325 µM) of the same molecule?
Answer: 0.913

Question: And the relative viability ([15]; first compound 6.325 µM)?
Answer: 0.748

Question: And the relative viability ([15]; first compound 20 µM)?
Answer: 0.607

Question: And the relative viability ([16]; first compound 0.2 µM)?
Answer: 1.01

Question: What about the relative viability ([16]; first compound 0.6325 µM) of the same molecule?
Answer: 0.861

Question: And the relative viability ([16]; first compound 2 µM)?
Answer: 0.686

Question: And the relative viability ([16]; first compound 6.325 µM)?
Answer: 1.07

Question: And the relative viability ([16]; first compound 20 µM)?
Answer: 0.861

Question: And the relative viability ([17]; first compound 0.2 µM)?
Answer: 0.724

Question: What about the relative viability ([17]; first compound 0.6325 µM) of the same molecule?
Answer: 0.923

Question: And the relative viability ([17]; first compound 2 µM)?
Answer: 0.733

Question: And the relative viability ([17]; first compound 6.325 µM)?
Answer: 0.83

Question: What about the relative viability ([17]; first compound 20 µM) of the same molecule?
Answer: 0.213

Question: What about the relative viability ([18]; first compound 0.2 µM) of the same molecule?
Answer: 0.694

Question: What about the relative viability ([18]; first compound 0.6325 µM) of the same molecule?
Answer: 0.589

Question: And the relative viability ([18]; first compound 2 µM)?
Answer: 0.421

Question: What about the relative viability ([18]; first compound 6.325 µM) of the same molecule?
Answer: 0.732

Question: What about the relative viability ([18]; first compound 20 µM) of the same molecule?
Answer: 0.147

Question: What about the relative viability ([19]; first compound 0.2 µM) of the same molecule?
Answer: 0.964

Question: And the relative viability ([19]; first compound 0.6325 µM)?
Answer: 0.579

Question: What about the relative viability ([19]; first compound 2 µM) of the same molecule?
Answer: 0.76

Question: And the relative viability ([19]; first compound 6.325 µM)?
Answer: 1.03

Question: And the relative viability ([19]; first compound 20 µM)?
Answer: 0.747

Question: And the relative viability ([20]; first compound 0.2 µM)?
Answer: 0.817

Question: What about the relative viability ([20]; first compound 0.6325 µM) of the same molecule?
Answer: 0.507

Question: And the relative viability ([20]; first compound 2 µM)?
Answer: 0.589

Question: And the relative viability ([20]; first compound 6.325 µM)?
Answer: 0.911

Question: What about the relative viability ([20]; first compound 20 µM) of the same molecule?
Answer: 0.659

Question: What about the relative viability ([21]; first compound 0.2 µM) of the same molecule?
Answer: 0.852

Question: And the relative viability ([21]; first compound 0.6325 µM)?
Answer: 0.761

Question: And the relative viability ([21]; first compound 2 µM)?
Answer: 0.839

Question: And the relative viability ([21]; first compound 6.325 µM)?
Answer: 0.673

Question: What about the relative viability ([21]; first compound 20 µM) of the same molecule?
Answer: 0.561

Question: What about the relative viability ([22]; first compound 0.2 µM) of the same molecule?
Answer: 1.26

Question: And the relative viability ([22]; first compound 0.6325 µM)?
Answer: 1.08

Question: And the relative viability ([22]; first compound 2 µM)?
Answer: 1.05

Question: And the relative viability ([22]; first compound 6.325 µM)?
Answer: 1.24

Question: What about the relative viability ([22]; first compound 20 µM) of the same molecule?
Answer: 1.18
